Test results reported in patent US10653364B2, “Method for the continuous evaluation of the ventriculo-aortic coupling of at-risk patients by analysis of pressure-flow loops” (Assistance Publique—Hopitaux de Paris, priority 2014, dated 2020).

Tested on: major neurosurgery patients
Experiment: Aortic Pressure/Flow loop parameters before (T0) and at peak effect (T1) of a vasoconstrictor bolus in anesthetized patients
Type: in vivo, human
Parameters: S1, Base / S2, Base / S3, Base / Alpha, Base / Beta, Base / Gamma, Base / Alpha, Variations (Diff) / Beta, Variations (Diff) / Gamma, Variations (Diff) / S1, Variations (Diff) / S2, Variations (Diff) / S3, Variations (Diff): unit not given here
Details: for S2/Stot, Base / Alpha, Base / Beta, Base / Gamma, Base / S1, Base / S2, Base / S3, Base / S tot, Base: Base (T0, before injection); for Alpha, Base / Beta, Base / Gamma, Base: P/F loop angle; for S1, Base: P/F loop surface area S1; for S2, Base: P/F loop surface area S2; for S3, Base: P/F loop surface area S3; for Alpha, Peak / Beta, Peak / Gamma, Peak / S1, Peak / S2, Peak / S2/Stot, Peak / S3, Peak: Peak effect (T1) after peripheral venous bolus; for change in surface areas (Stot, S1, S2, S3) and angles (alpha, beta and gamma): before and after vasoconstriction, predominantly; for S tot, Base / S tot, Peak: total surface area of P/F loop; for S tot, Peak: Peak effect (T1) after peripheral venous bolus (9 mg Ephedrine, 50 μg Neophenylephrine or 5 μg Noradrenaline)
Excerpt: 1.1 Parameters Measured • The Pressure signal is collected in mmHg (FIG. 2), by means of a radial or femoral arterial catheter. • The esophageal Doppler signal giving the aortic flow in ml/s (FIG. 2) is collected via the Deltex® combi Q monitor. • The Pressure/Flow loop is constructed heart beat by heart beat with the simultaneous values of aortic flow on the x-axis and of pressure on the y-axis.
1.2 Description of the Various Parameters Resulting from the Aortic Pressure/Flow Loop: • the various specific points of the loop (FIG. 3-4): • A: diastolic pressure: the flow is zero before the beginning of systole. • B: maximum flow. • C: maximum pressure (systolic pressure). • D: dicrotic pressure: pressure at closing of the aortic valves: flow at 0, beginning of diastole. • The various specific straight lines of the loop: • straight line passing through points A and B: straight line between the beginning of the cycle and the point where the flow rate is at the maximum. • straight line passing through points A and C: straight line between the beginning of the cycle and the point where the pressure is at the maximum. • The various specific surface areas of the loop (FIG. 5): • Stot: total surface area of the Pressure/Flow loop. • S1: surface area between the lower part of the curve and the straight line (AB). • S2: surface area of the loop included between the two straight lines (AB) and (AC). • S3: surface area of the loop included between the straight line (AC) and the upper edge of the loop. • The various angles of the loop (FIG. 6): • Alpha: angle between the horizontal passing through point A and the straight line (AB). • Beta: angle between the horizontal passing through point A and the straight line (AC). • Gamma: angle between the two straight lines (AB) and (AC).
The study was carried out in the operating theatre on major neurosurgery patients, after agreement from the Ethics Committee (CE SRLF 11-356) and obtaining of informed consent. In addition to the standard monitoring, a device for simultaneous invasive measurement of arterial pressure and measurement of cardiac output by trans-esophageal Doppler (CombiQ®, Deltex Medical) was set out after induction of general anesthesia. Moreover, in order to have a reflection of arterial elastance and of arterial stiffness, an arterial tonometer (SphygmoCor®, AtCor Medical) was used to obtain the curve of central arterial pressure and the arterial stiffness indices. This device is currently the reference for quantifying arterial stiffness (represented by the augmentation index: Aix, FIG. 11) and monitors its evolution as a function of vasoactive therapies.
Patients having episodes of decrease in arterial pressure (decrease of 20% compared with the target pressure) and requiring the administration of a vasoconstrictor were included. Before each injection of […] (T0) and then at the time of the peak effect of the vasopressin (T1) the Pressure/Flow loops were plotted and the parameters derived from the loop were calculated. At the same time, using the SphygmoCor®, the augmentation index (Aix) and the arterial elastance (Ea) were recorded.
Depending on the anesthetists' choice, the patients received either 9 mg of Ephedrine, or 50 μg of Neophenylephrine, or 5 μg of Noradrenaline administered via a peripheral venous route.
Statistical Analysis: • search for the correlation between the Aix measured by SphygmoCor®, with the parameters of the P/F loop at T0 and at T1. • comparison of the evolution of the parameters of the P/F loop as a function of the use of Ephedrine, of Neosynephrine or of Noradrenaline. • comparison of the parameters of the P/F loop at T0 between the patients having cardiovascular risk factors and the patients not having risk factors. • study of the variations of the parameters of the P/F loop before and after vasoconstriction as a function of the patient's susceptibility to illness and of the type of vasoconstrictor used.

## NC[C@H](O)c1ccc(O)c(O)c1 [Noradrenaline]
  S2/Stot, Base: 26.4
  Alpha, Base: 8.5
  Beta, Base: 11.5
  Gamma, Base: 2.2
  S1, Base: 1775
  S2, Base: 1215.9
  S3, Base: 1860.8
  Alpha, Peak: 10.6
  Beta, Peak: 14.2
  Gamma, Peak: 3.2
  S1, Peak: 1963.2
  S2, Peak: 1957.4
  S2/Stot, Peak: 27.9
  S3, Peak: 2311.5
  change in surface areas (Stot, S1, S2, S3) and angles (alpha, beta and gamma): significant increase
  S tot, Base: 5291
  S tot, Peak: 6582

## CNC[C@H](O)c1cccc(O)c1 [Neosynephrine]
  S2/Stot, Base: 26.9
  Alpha, Base: 8.5
  Beta, Base: 11.2
  Gamma, Base: 2.1
  S1, Base: 2028
  S2, Base: 1255.2
  S3, Base: 1851.1
  Alpha, Peak: 10.6
  Beta, Peak: 16.2
  Gamma, Peak: 5.4
  S1, Peak: 2516
  S2, Peak: 2624.7
  S2/Stot, Peak: 31.2
  S3, Peak: 2452.2
  change in surface areas (Stot, S1, S2, S3) and angles (alpha, beta and gamma): significant increase
  S tot, Base: 5344
  S tot, Peak: 7412
FIG. 13, for similar pressure increases induced by the vasoconstrictors
  increase of the beta and gamma angles: significantly more than Noradrenaline and Ephedrine
NEOSYNEPHRINE vs NORADRENALINE
  Alpha, Variations (Diff): −0.02
  Beta, Variations (Diff): 2.55
  Gamma, Variations (Diff): 2.59
  S1, Variations (Diff): 266.01
  S1/Stot %, Variations (Diff): −4.61%
  S2, Variations (Diff): 615.97
  S2/Stot %, Variations (Diff): 6.6%
  S3, Variations (Diff): 221.27
  S3/Stot %, Variations (Diff): −2.13%
  S tot, Variations (Diff): 1072.27
Compared with the other two vasoconstrictors
  increase with respect to Stot, beta, gamma and S2 (absolute and S2/Stot): greater increase than the other two vasoconstrictors
Reflected by greater increase in S2 and in beta and gamma angles
  effect on ventricular-aortic coupling: detrimental effect

## CN[C@@H](C)[C@H](O)c1ccccc1 [Ephedrine]
  S2/Stot, Base: 34.2
  Alpha, Base: 7.4
  Beta, Base: 10.9
  Gamma, Base: 1.8
  S1, Base: 1997
  S2, Base: 1709
  S3, Base: 1658.8
  Alpha, Peak: 9.5
  Beta, Peak: 13.3
  Gamma, Peak: 2.4
  S1, Peak: 2722
  S2, Peak: 2694.4
  S2/Stot, Peak: 32.6
  S3, Peak: 2242.5
  change in surface areas (Stot, S1, S2, S3) and angles (alpha, beta and gamma): significant increase
  S tot, Base: 4889
  S tot, Peak: 6974
